Assay results reported in US20050048508A1, “Trehalose receptor and method for detecting trehalose with the same” (KABUSHIKI KAISHA HAYASHIBARA SEIBUTSU KAGAKU KENKYUJO, priority 2002, published 2005).

Columns and labels:
[1] = relative to sucrose; cited from earlier work
[2] = biological target: T1, trehalose receptor (G protein α-subunits and T1R3) (Mus musculus, UniProt Q925D8, I706N); test: Quantitation of trehalose using trehalose receptor, 96-well microplate fluorescence assay; type: cell-based; conditions: for Fluorescence intensity (integral value): 0.1 ml/well added to 100 µl cell suspension, ex 494 nm, em 516 nm
T1 construct: expressed in transfected cells; host or cells: 293 cells, RCB 1637 (human embryonic kidney)
T1 sequence (Q925D8 21-858 I706N): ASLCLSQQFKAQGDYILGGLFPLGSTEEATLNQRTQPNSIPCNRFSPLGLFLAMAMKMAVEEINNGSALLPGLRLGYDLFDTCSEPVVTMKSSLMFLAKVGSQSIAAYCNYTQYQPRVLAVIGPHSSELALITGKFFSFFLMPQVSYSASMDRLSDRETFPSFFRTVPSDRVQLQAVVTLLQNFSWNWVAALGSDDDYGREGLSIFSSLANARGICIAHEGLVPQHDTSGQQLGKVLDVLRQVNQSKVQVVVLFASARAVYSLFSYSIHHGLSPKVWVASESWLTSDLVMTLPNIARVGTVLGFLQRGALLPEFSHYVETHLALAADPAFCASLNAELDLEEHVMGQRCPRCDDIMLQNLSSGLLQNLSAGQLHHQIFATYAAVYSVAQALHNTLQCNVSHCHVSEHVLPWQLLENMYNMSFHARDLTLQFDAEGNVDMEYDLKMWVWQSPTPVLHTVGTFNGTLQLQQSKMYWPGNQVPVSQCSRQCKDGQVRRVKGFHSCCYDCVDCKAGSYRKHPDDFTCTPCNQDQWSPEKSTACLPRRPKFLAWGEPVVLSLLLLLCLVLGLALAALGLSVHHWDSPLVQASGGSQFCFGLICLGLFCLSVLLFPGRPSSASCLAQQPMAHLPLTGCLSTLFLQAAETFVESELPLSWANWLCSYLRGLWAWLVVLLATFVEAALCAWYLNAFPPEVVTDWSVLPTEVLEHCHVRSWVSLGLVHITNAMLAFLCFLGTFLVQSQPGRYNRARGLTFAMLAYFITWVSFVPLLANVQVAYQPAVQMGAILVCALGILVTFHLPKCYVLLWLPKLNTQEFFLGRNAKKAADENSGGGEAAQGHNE
Procedure: The captioned reactivity test was conducted according to a conventional intracellular calcium ion assay: 293 Cells prepared in Example 3, capable of coexpressing the G protein α-subunits and the sweet taste receptor(s), were cultured in a plastic petri dish for cell culture until reaching its confluent phase. Thereafter, the cells were detached from the inner surface of the petri dish with a 0.05% (v/v) trypsin solution and a 0.53 mM EDTA solution, suspended in D-MEM supplemented with 10% (v/v) fetal calf serum to give a cell density of 1×10^6 cells/ml, and allowed to intake “FLUO-4. AM”, a reagent for detecting intracellular calcium ion commercialized by Molecular Probes Inc., Ore., USA, by adding to the cell suspension to give a final concentration of 2 μM and incubating the cells at 37 ° C. for 30 to 90 min. The resulting cells were washed with a buffer for detecting calcium ion, which contained 10 mM HEPES (pH 7.4), 130 mM sodium chloride, 5.4 mM potassium chloride, 2 mM calcium chloride, 1 mM magnesium chloride, 5.5 mM D-glucose, 0.1% (v/v) calf serum albumin, and 1 mM sodium pyruvate to remove the reagent remained extracellularly; suspended in a fresh preparation of the same buffer to give a cell density of 2.67 ×10^7 cells/ml; filtered with a membrane with a pore size of 100 μm mesh; and allowed to stand at 25° C. for 30 min. Two milliliters of the resultant cell suspension was injected into a glass cuvette, commercialized by Hitachi, Ltd., Tokyo, Japan, and analyzed on “HITACHI 650-40”, a fluorescence spectrophotometer commercialized by Hitachi, Ltd., Tokyo, Japan.
One hundred microliter aliquots of the cell suspension in Example 4 were placed in commercially available 96-well microplates, followed by placing 0.1 ml/well of any of trehalose solutions with different concentrations of 1, 2, 5, 10, 20, 50, 100, 200, 500, 1,000, and 2,000 mM, prepared with trehalose and the same buffer for calcium ion assay as used in Example 4; and assayed on “FLUOROSCAN ASCENT W/DF”, an automatic fluorescence spectrophotometer for multi-plates, Dainippon Pharmaceutical Co., Ltd., Tokyo, Japan, at an excitation wavelength of 494 nm and a fluorescence wavelength of 516 nm, followed by calculating the integral values for the detected fluorescence intensities.

Concentration at which trehalose is detectable ([2]; trehalose receptor cells, fluorescence assay of Table 5): ≥ 5 mM | Fluorescence intensity (integral value) ([2]; trehalose solution 1 mM): 0.2 | Fluorescence intensity (integral value) ([2]; trehalose solution 2 mM): 0.5 | Fluorescence intensity (integral value) ([2]; trehalose solution 5 mM): 10 | Fluorescence intensity (integral value) ([2]; trehalose solution 10 mM): 19 | Fluorescence intensity (integral value) ([2]; trehalose solution 20 mM): 29 | Fluorescence intensity (integral value) ([2]; trehalose solution 50 mM): 45 | Fluorescence intensity (integral value) ([2]; trehalose solution 100 mM): 82 | Fluorescence intensity (integral value) ([2]; trehalose solution 200 mM): 159 | Fluorescence intensity (integral value) ([2]; trehalose solution 500 mM): 421 | Fluorescence intensity (integral value) ([2]; trehalose solution 1,000 mM): 670 | Fluorescence intensity (integral value) ([2]; trehalose solution 2,000 mM): 720
Compound: OC[C@H]1O[C@H](O[C@H]2O[C@H](CO)[C@@H](O)[C@H](O)[C@H]2O)[C@H](O)[C@@H](O)[C@@H]1O [Trehalose]
Sweetening power [1]: 45%
